According to patent publication US20100093706A1, “MULTIMEDIATOR TRANSPORTER INHIBITORS FOR USE IN TREATMENT OF CENTRAL NERVOUS SYSTEM DISORDERS” (priority 2006, published 2010):
“Also recorded” adds a separate entry of the source. Read-outs that look alike come from different tables or passages of the source.

Assays:
rat = assay: acute single-dose toxicology in rat; type: in vivo; conditions: rat (n = 5), i.v., observed 72 hours
Description: An in vivo evaluation was carried out to determine the maximum tolerated dose of numerous test compounds in rat. The compounds were administered i.v., and the animals were then observed for 72 hours.
Briefly, experimental rats, in groups of 5 animals, were administered with various doses of respective inhibitors (e.g. 30, 90, 120, and 200 mg/kg), and the observed toxicological effects were recorded.

rats = assay: forced swim test (behavioral despair assay) in rats; type: in vivo; conditions: rat
Description: In vivo efficacy of several illustrative inhibitors of the instant invention, (1), (3), and (4), were measured using standard forced swim test model using rat. The objective of this study was to assess the antidepressant effects of test compounds in the behavioral despair assay in rats using a modification of a method described by Porsolt R. D. et al. in Behavioural despair in rats: a new model sensitive to antidepressant treatment, Eur. J. Pharmacol., 47: 379-391, 1978; Porsolt et al., Nature 266: 730-732, 1977; and Porsolt et al., in Psychopharmacology, Olivier, Mos, and Slangen (eds) Birkhäuser Verlag, Basel, pp. 137-159, 1991. Briefly, when mice (or rats) are forced to swim in a cylinder from which no escape is possible, they readily adopt a characteristic immobile posture and make no further attempts to escape except for small movements needed to keep floating. The immobility is considered by some to reflect a “depressive mood” (Porsolt et al., Nature 266: 730-732, 1977) in which animals cease to struggle to escape the aversive situation. The immobility induced by the procedure is influenced by a wide variety of antidepressants (Porsolt et al., in Psychopharmacology, Olivier, Mos, and Slangen (eds) Birkhauser Verlag, Basel, pp. 137-159, 1991) and has a good predictive validity in that it detects antidepressants with different mechanisms of action (TCAs, SSRIs, MAOIs, and other atypical ones). The test is sensitive to muscle-relaxant (benzodiazepines) and sedative (neuroleptics) effects, leading to enhanced immobility (Porsolt et al., supra).
In a typical experiment, animals are placed singly into a cylinder (e.g. 46×30 cm) containing fresh water at about 20° C. for 6 minutes. The activity (or immobility) of the animal is measured by an observer minute by minute. In more detail, the animals were preconditioned in a pretest session, where the rats were individually forced to swim inside a vertical plexiglass cylinder containing water maintained at 19-20° C. After 15 minutes in the water, they were allowed to dry for […] in a heated enclosure. Twenty-four hours later, the compounds were administered either intraperitoneally or orally to the animals. One hour after administration of the test compound, animals were put back into the cylinder containing water. The total duration of immobility was measured during the last 4 minutes of a 6 minute test.
The results are expressed as the percentage of variation of the total duration of immobility calculated from the mean value of the vehicle-treated group (% variation=[(immobility duration of vehicle−immobility duration of test compound)/(immobility duration of vehicle)]×100%).
In order to measure the in vivo efficacy of inhibiting DAT in rats using an inhibitor of the instant invention, one test inhibitor ((1), (3), or (4)) was injected i.p. as racemic mixtures of diastereomers into the animals, at various-doses (e.g. 7.5 and […]). Sibutramine (2.0 and 2.5 mg/kg), Bupropion (7.5 and 10 mg/kg), and Imipramine (30 mg/kg) were similarly administered as controls. […] Asterisks indicate highly statistical significant results.
A fourth inhibitor, (6) was administered p.o. as a racemic mixture of diastereomers at either 35 or 75 mg/kg. Sibutramine (5.0 and 3.75 mg/kg), Bupropion (30 and 40 mg/kg), and Imipramine (100 mg/kg) were similarly administered as controls.
Similarly, (1) was also administered p.o. as a racemic mixture of enriched (95:5) diastereomer at either 35 or 75 mg/kg. […]

DAT (h) = biological target: T1, DAT (h) (Homo sapiens, UniProt Q01959); assay: cell-based; type: cell-based
T1 construct: expressed in transfected cells
T1 sequence (Q01959 whole entry): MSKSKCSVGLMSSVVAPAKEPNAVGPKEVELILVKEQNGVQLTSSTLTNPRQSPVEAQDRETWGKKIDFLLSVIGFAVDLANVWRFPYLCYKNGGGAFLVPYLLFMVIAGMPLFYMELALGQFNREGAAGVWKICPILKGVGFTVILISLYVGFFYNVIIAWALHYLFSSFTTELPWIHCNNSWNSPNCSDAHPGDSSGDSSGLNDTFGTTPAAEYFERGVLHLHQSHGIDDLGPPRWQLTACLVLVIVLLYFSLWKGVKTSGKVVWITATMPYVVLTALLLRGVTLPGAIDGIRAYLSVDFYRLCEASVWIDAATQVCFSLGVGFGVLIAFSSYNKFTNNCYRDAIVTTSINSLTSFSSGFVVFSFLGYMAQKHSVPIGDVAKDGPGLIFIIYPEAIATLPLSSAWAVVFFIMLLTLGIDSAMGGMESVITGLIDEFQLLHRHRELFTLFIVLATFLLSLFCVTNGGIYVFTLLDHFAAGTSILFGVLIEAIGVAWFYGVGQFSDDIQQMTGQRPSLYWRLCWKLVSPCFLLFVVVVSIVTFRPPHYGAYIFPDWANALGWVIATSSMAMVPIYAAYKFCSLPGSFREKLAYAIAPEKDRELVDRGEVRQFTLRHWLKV
Description: (§1) Functional activity of the compounds was determined in vitro in cellular assays using recombinant human cell lines.

DAT (r) = DAT (r) (Rattus norvegicus, UniProt P23977); assay: in vitro functional uptake, rat DAT; type: cell-based; conditions: rat; unit inferred; read-out: DAT (r) in vitro functional uptake
Sequence of DAT (r) (P23977 whole entry): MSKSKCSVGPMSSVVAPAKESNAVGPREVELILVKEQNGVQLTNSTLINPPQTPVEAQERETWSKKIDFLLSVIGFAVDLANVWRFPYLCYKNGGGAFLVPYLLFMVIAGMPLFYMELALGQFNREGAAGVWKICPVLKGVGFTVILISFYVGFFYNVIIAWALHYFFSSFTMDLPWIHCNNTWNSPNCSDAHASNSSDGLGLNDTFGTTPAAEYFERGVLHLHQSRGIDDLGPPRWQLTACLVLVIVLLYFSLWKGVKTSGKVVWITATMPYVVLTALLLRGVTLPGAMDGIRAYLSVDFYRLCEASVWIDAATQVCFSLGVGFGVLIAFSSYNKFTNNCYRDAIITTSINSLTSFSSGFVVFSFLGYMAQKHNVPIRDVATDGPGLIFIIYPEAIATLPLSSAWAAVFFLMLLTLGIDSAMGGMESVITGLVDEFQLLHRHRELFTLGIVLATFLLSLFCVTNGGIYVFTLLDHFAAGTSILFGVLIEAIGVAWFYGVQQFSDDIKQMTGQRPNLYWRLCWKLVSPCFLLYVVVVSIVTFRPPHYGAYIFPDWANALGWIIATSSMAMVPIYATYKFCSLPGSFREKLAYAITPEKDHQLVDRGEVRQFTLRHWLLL

[1] = biological target: NET (norepinephrine transporter or SLC6A2) (Homo sapiens, UniProt P23975); assay: cell-based
Sequence of NET (norepinephrine transporter or SLC6A2) (P23975 whole entry): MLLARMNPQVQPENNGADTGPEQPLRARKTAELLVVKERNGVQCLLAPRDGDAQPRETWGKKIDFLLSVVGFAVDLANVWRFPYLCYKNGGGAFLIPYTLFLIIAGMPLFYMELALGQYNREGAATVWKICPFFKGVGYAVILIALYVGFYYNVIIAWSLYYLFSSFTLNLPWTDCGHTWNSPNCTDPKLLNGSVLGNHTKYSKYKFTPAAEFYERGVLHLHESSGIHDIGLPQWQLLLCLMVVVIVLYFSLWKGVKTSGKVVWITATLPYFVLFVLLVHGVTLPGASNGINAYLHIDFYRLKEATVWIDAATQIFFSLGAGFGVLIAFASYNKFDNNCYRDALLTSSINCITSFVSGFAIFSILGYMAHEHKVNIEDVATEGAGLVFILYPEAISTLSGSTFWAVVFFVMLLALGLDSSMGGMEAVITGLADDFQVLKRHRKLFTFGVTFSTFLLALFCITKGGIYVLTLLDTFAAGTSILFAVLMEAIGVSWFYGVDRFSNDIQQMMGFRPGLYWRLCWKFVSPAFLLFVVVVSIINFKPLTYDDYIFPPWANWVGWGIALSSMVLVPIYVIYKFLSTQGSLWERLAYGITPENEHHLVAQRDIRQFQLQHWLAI

DAT (SLC6A3) = biological target: T2, DAT (SLC6A3) (Homo sapiens, UniProt Q01959); assay: in vitro inhibition profile, IC50 of DAT (uptake assay); type: cell-based
T2 construct: expressed in transfected cells
T2 sequence (Q01959 whole entry): as the sequence (Q01959 whole entry) above
Description: Before the assay, cells expressing DAT are washed once with KRH and equilibrated for 5 min. The cells may be assayed in 24-well plates and incubated for 2-5 min. with tritiated amines. Nontransported inhibitors were preincubated for 5 min, and substrates were applied together with the tritiated substrate.
Experiments to determine the ionic requirements for DAT-mediated uptake are done in KRH buffer, substituting LiCl or choline Cl for NaCl (sodium-dependence) or substituting D-gluconates for NaCl and KCl, and Ca(NO3)2 for CaCl2 (chloride dependence). Cells are washed twice with sodium- or chloride-free KRH before the assay (each wash step at least 5 min). In all transport assays, incubation periods and substrate concentrations are chosen such that uptake obeyed first-order rate kinetics.
Vmax values for amine uptake in stable transfected DAT-cells are determined in parallel assays for at least two amines per experiment and expressed as relative values.

5-HT = 5-HT (Homo sapiens, UniProt P31645); assay: cell-based
Sequence of 5-HT (P31645 whole entry): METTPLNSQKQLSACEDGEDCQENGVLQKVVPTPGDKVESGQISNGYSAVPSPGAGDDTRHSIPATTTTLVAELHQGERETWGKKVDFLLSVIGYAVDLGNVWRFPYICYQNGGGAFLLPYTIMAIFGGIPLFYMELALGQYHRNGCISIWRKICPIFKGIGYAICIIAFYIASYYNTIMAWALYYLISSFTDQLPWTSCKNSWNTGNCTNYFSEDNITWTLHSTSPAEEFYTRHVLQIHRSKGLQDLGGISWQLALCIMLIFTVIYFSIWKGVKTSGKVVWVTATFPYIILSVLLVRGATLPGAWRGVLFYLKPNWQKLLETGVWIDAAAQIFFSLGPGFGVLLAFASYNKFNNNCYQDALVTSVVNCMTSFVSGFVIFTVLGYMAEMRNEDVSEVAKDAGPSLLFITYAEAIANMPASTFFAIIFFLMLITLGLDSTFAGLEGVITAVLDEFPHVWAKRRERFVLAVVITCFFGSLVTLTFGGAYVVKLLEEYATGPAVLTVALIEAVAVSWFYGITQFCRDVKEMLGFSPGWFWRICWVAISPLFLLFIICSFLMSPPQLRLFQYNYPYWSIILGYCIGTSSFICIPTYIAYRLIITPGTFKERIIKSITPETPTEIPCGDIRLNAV

NET (h) = biological target: T3, NET (h) (Homo sapiens, UniProt P23975); assay: cell-based; type: cell-based; conditions: human; nM; read-out: NET (h) in vitro functional uptake
T3 construct: expressed in transfected cells; host or cells: MDCK
T3 sequence (P23975 whole entry): as the sequence (P23975 whole entry) above
Description: as §1

5-HT (h) = biological target: T4, 5-HT (h) (Homo sapiens, UniProt P31645); assay: cell-based; type: cell-based; conditions: human; nM; read-out: 5-HT (h) in vitro functional uptake
T4 construct: expressed in transfected cells; host or cells: HEK-293
T4 sequence (P31645 whole entry): as the sequence (P31645 whole entry) above
Description: as §1

Sprague-Dawley rats = assay: 7 day multidose oral dosing toxicology study; type: in vivo, rat; conditions: for 7 day multidose oral toxicology, symptoms: Sprague-Dawley rats n = 6 (3M/3F)
Description: The representative results are listed below in Table VI.

[2] = human, nM, read-out: DAT (h) in vitro functional uptake

SMILES | EC50 (NET (h)) | EC50 (DAT (h); [2]) | EC50 (5-HT (h)) | other results
CC1CCC(COc2ccc(C(F)(F)F)cc2)CN1CC(O)C1(c2ccc(Cl)cc2)CCC1 (stereo not shown) [(4)] |  |  |  | acute single dose toxicology, observed symptoms (rat; 120 mg/kg): decreased grip strength and limb tone and convulsions; acute single dose toxicology, observed symptoms (rat; 200 mg/kg): Convulsions; forced swim test efficacy versus commercial drugs (FIG. 1) (rats; i.p., racemic mixtures of diastereomers): performed equally well, if not better, than the commercial drugs Sibutramine, Bupropion, and Imipramine
CC1C(COc2ccc(C(F)(F)F)cc2)CCCN1CC1(c2ccc(Cl)cc2)CCC1 (stereo not shown) [(5)] |  |  |  | EC50 (DAT (h)): 5 nM; selectivity for DAT over 5-HT (DAT (h)): 1000 fold; selectivity for DAT over NET (DAT (h)): 1000 fold; EC50 (DAT (r)): 300 nM; IC50 [1]: 870 nM; IC50 (DAT (SLC6A3)): 5 nM; fold selectivity of DAT against related receptors (NET, 5-HT) (DAT (SLC6A3); from Table II IC50): 174-2,000 fold; IC50 (5-HT): 10000 nM
CC1C(COc2ccc(C(F)(F)F)cc2)CCCN1CC(O)C1(c2ccc(Cl)cc2)CCC1 (stereo not shown) [(6)] |  |  |  | acute single dose toxicology, observed symptoms (rat; 200 mg/kg): no observed symptoms; forced swim test efficacy versus commercial drugs (FIG. 2, FIG. 3) (rats; p.o., 35 or 75 mg/kg): performed equally well, if not better, than the commercial drugs Sibutramine, Bupropion, and Imipramine
C[C@@H]1[C@H](COc2ccc(C(F)(F)F)cc2)CCCN1CC(O)C1(c2ccc(Cl)cc2)CCC1 (stereo partly shown) [(6′)] | 3 nM | 3 nM |  | 
C[C@H]1CC[C@@H](COc2ccc(C(F)(F)F)cc2)CN1CC1(c2ccc(Cl)cc2)CCC1 [(13), (2S,5R)-1-{[1-(4-Chlorophenyl)cyclobutyl]methyl}-2-methyl-5-{[4-(trifluoromethyl)phenoxy]methyl}piperidine] | 100 nM | < 1 nM | > 2000 nM | 
C[C@H]1CCN(CC2(c3ccc(Cl)cc3)CCC2)C[C@@H]1COc1ccc(C(F)(F)F)cc1 [(14), (3R,4S)-1-{[1-(4-Chlorophenyl)cyclobutyl]methyl}-4-methyl-3-{[4-(trifluoromethyl)phenoxy]methyl}piperidine] | 150 nM | < 1 nM | > 2000 nM | 
C[C@@H]1CCN(CC2(c3ccc(Cl)cc3)CCC2)C[C@H]1COc1ccc(C(F)(F)F)cc1 [(15), (3S,4R)-1-{[1-(4-Chlorophenyl)cyclobutyl]methyl}-4-methyl-3-{[4-(trifluoromethyl)phenoxy]methyl}piperidine] | 350 nM | < 1 nM | > 2000 nM | 
C[C@H]1CCN(CC2(c3ccc(Cl)cc3)CCC2)C[C@H]1COc1ccc(C(F)(F)F)cc1 [(16), (3S,4S)-1-{[1-(4-Chlorophenyl)cyclobutyl]methyl}-4-methyl-3-{[4-(trifluoromethyl)phenoxy]methyl}piperidine] | 100 nM | < 1 nM | > 2000 nM | 
C[C@H]1CC[C@@H](COc2ccc(C(F)(F)F)cc2)CN1C[C@@H](O)C1(c2ccc(Cl)cc2)CCC1 [(17), (S)-1-[1-(4-Chlorophenyl)cyclobutyl]-2-{(2S,5R)-2-methyl-5-[4-(trifluoromethyl)phenoxy]methyl}piperidin-1-ylethanol] | 5 nM | 1 nM | > 2000 nM | 
C[C@H]1CC[C@@H](COc2ccc(C(F)(F)F)cc2)CN1C[C@H](O)C1(c2ccc(Cl)cc2)CCC1 [(18), (R)-1-[1-(4-Chlorophenyl)cyclobutyl]-2-{(2S,5R)-2-methyl-5-[4-(trifluoromethyl)phenoxy]methyl}piperidin-1-ylethanol] | 2 nM | 1 nM | > 2000 nM | 
C[C@@H]1CC[C@H](COc2ccc(C(F)(F)F)cc2)CN1C[C@H](O)C1(c2ccc(Cl)cc2)CCC1 [(19), (R)-1-[1-(4-Chlorophenyl)cyclobutyl]-2-{(2R,5S)-2-methyl-5-[4-(trifluoromethyl)phenoxy]methyl}piperidin-1-ylethanol] | 9 nM | 1 nM | > 2000 nM | 
C[C@@H]1CC[C@H](COc2ccc(C(F)(F)F)cc2)CN1C[C@@H](O)C1(c2ccc(Cl)cc2)CCC1 [(20), (S)-1-[1-(4-Chlorophenyl)cyclobutyl]-2-{(2R,5S)-2-methyl-5-[4-(trifluoromethyl)phenoxy]methyl}piperidin-1-ylethanol] | 2 nM | 1 nM | 20 nM | 
C[C@@H]1CC[C@@H](COc2ccc(C(F)(F)F)cc2)CN1C[C@@H](O)C1(c2ccc(Cl)cc2)CCC1 [(21), (S)-1-[1-(4-Chlorophenyl)cyclobutyl]-2-{(2R,5R)-2-methyl-5-[4-(trifluoromethyl)phenoxy]methyl}-piperidin-1-ylethanol] | 5 nM | 1 nM | 10 nM | 
CC(C)C[C@@H](N)C1(c2ccc(Cl)cc2)CCC1 [R-DDMS, reference compound] | 200 nM | 100 nM | 1500 nM | 
CN[C@H](CC(C)C)C1(c2ccc(Cl)cc2)CCC1 [R-DMS, reference compound] | 300 nM | 30 nM | 1500 nM | 
CC(C)CC(N(C)C)C1(c2ccc(Cl)cc2)CCC1 (stereo not shown) [Sibutramine] |  |  |  | 7 day multidose oral toxicology, symptoms (Sprague-Dawley rats; oral 100 mg/kg/day, 100 mg/kg/day): decreased grip strength, depression; 7 day multidose oral toxicology, symptoms (Sprague-Dawley rats; oral 400 mg/kg/day, 400 mg/kg/day): convulsions; also recorded: Convulsions;; 7 day multidose oral toxicology, deaths (Sprague-Dawley rats; n = 6, oral 200 mg/kg/day): 2 deaths; 7 day multidose oral toxicology, self-mutilation (number of animals) (Sprague-Dawley rats; n = 6, oral 200 mg/kg/day): 6 self-mutilation
